Measured values: patent publication US20090081197A1 (Palatin Technologies, Inc., priority 2007, published 2009)

Legend:
[1] = biological target: T1, MC1-R (Mus musculus, UniProt Q01727); test: Competitive inhibition assay using [I^125]-NDP-α-MSH, B-16 mouse melanoma cell membranes; assay type: binding; conditions: for inhibition at 1 µM: 1 μM test compound, read-out: Inhibition at 1 μM (NDP-α-MSH) In Normal System, MC1-R; for Ki: read-out: Ki (nM) (NDP-α-MSH) In Normal System, MC1-R
T1 construct: B-16 mouse melanoma cells (containing MC1-R); endogenous in cells
Description: (§1) The ligand concentration used was 0.4 nM for MC3-R and MC5-R, 0.2 nM for MC4-R and 0.1 nM for B16-F10 (MC1-R) membranes. In certain experiments, hMC1-R was also employed.
(§2) The assay mixture was incubated for 90 minutes at room temperature, then filtered and the membranes washed three times with ice cold buffer. The filter was dried and counted in a gamma counter for remaining radioactivity bound to the membranes. […] Each assay was conducted in triplicate and the actual mean values are described, with results less than 0% reported as 0%.

[2] = Penile erection induction in male rats; assay type: in vivo
Description: Penile erection induction. The ability of compounds to induce penile erection (PE) in male rats was evaluated with selected compounds. Male Sprague-Dawley rats weighing 200-250 g were kept on a 12 hour on/off light cycle with food and water ad libitum. All behavioral studies were performed between 10 A.M. and 5 P.M. Groups of 4-8 rats were treated with compounds at a variety of doses via intravenous (IV) or intracerebroventricular (ICV) routes. Immediately after treatment, rats were placed into individual polystyrene cages (27 cm long, 16 cm wide, and 25 cm high) for behavioral observation. […] Controls utilized carrier without the test compound. Mean PEs in control groups were 0.17 to 0.5 PEs/rat by IV administration in various experiments and between 1-2 PEs/rat by ICV administration in various experiments, and thus only PEs with statistically relevant increases over the mean PEs in control groups are reported as inducing PEs. A PE response in IV animals greater than the mean PEs in control groups but less than 1.0 PEs/rat, particularly with less than all animals responding, was treated as equivocal, and not necessarily distinguishable from vehicle control. In selected instances, compounds with equivocal results in the IV model were tested for penile response in an ICV model, and compounds without a statistically relevant increase over the mean PEs in ICV control groups were determined to not induce PEs.

[3] = IP (and IN) food intake, mice; assay type: in vivo; conditions: mouse, IP; for inhibition in vivo at 3 mg/kg / inhibition in vivo at 10 mg/kg: read-out: maximal decrease in food intake; for decrease in food intake: 20 hours
Description: IV and IP food intake and body weight change. Change in food intake and body weight was evaluated for selected compounds. Male Sprague-Dawley rats or male C57BL/6 mice were utilized. Animals were individually housed in conventional plexiglass hanging cages and maintained on a controlled 12 hour on/off light cycle. Water and powdered (LabDiet, 5P00 Prolab RMH 3000) or pelleted (Harlan Teklad 2018 18% Protein Rodent Diet) food was provided ad libitum. For 1 week before treatment, 24-hour food intake and body weight change was recorded to assess a baseline for the group during vehicle treatment. The rats were dosed IV with vehicle or selected compounds (0.5-3 mg/kg, and in some cases up to 10 mg/Kg) or dosed intraperitoneally (IP) with vehicle or selected compounds (0.5-10 mg/kg, and in some cases up to 50 mg/kg). Mice were dosed IP. […] The changes in body weight and food intake for the 48 hour and 72 hour periods after dosing were also measured to determined reversal of changes in body weight and food intake effects back to baseline levels.

[4] = biological target: MC3-R (Homo sapiens, UniProt P41968); test: Competitive inhibition assay using [I^125]-NDP-α-MSH, hMC3-R membranes; assay type: binding; set-up: expressed in transfected cells; conditions: for inhibition at 1 µM: 1 μM test compound, read-out: Inhibition at 1 μM (NDP-α-MSH) In Normal System, MC3-R; for Ki: read-out: Ki (nM) (NDP-α-MSH) In Normal System, MC3-R
Description: as §1, §2

[5] = biological target: MC5-R (Homo sapiens, UniProt P33032); test: Competitive inhibition assay using [I^125]-NDP-α-MSH, hMC5-R membranes; assay type: binding; set-up: expressed in transfected cells; conditions: for inhibition at 1 µM: 1 μM test compound, read-out: Inhibition at 1 μM (NDP-α-MSH) In Normal System, MC5-R; for Ki: read-out: Ki (nM) (NDP-α-MSH) In Normal System, MC5-R
Description: as §1, §2

[6] = biological target: T2, MC4-R (Homo sapiens, UniProt P32245); test: cAMP functional activity assay in HEK-293 cells, normal system; assay type: cell-based; set-up: expressed in transfected cells; host or cells: HEK-293; conditions: for intrinsic activity at MC4-R in a normal system / EC50: normal receptor density system; for intrinsic activity at MC4-R in a normal system: NDP-α-MSH = 1.0; for functional status at MC4-R in cAMP assay: normal system, 1 μM concentration where stated
Description: General method for EC50 determination in functional activity assay. […] Data analysis and EC50 values were determined using nonlinear regression analysis with Prism Graph-Pad software.
Functional status. The agonist/antagonist status with respect to MC1-R, MC-3R, MC4-R and MC5-R of certain compounds of the invention was determined. Antagonistic activity was determined by measuring the inhibition of α-MSH-induced or NDP-α-MSH-induced cAMP levels following exposure to graded doses of compounds as in the preceding descriptions.
Assay for agonist. Evaluation of the molecules to elicit a functional response in HEK-293 cells expressing MC4-R was accomplished by measuring the accumulation of intracellular cAMP following treatment. Confluent HEK-293 cells expressing MC4-R receptors were detached by enzyme free cell suspension buffer. […] The cells were plated in a 96 well plates at a density of 0.5×10^5 cells per well and pre-incubated for 30 minutes. Test compounds (dissolved in dimethylsulfoxide (DMSO) at a concentration range of 0.05-5000 nM) were added in a total assay volume of 200 μL and cells were incubated for 1 hour at 37° C. The concentration of DMSO was always held at 1% in the assay mixture. NDP-α-MSH was used as the reference agonist. […] Data analysis and EC50 values were determined by using nonlinear regression analysis with Prism Graph-Pad software. […] Compounds with a response ratio of less than 0.1 (10%) were evaluated for antagonistic activity.

[7] = biological target: T2, MC4-R; test: Competitive inhibition assay using [I^125]-NDP-α-MSH, hMC4-R membranes; assay type: binding; set-up: host or cells: TREx-293 (HEK-293 stably expressing Tet repressor); conditions: for inhibition at 1 µM: 1 μM test compound, read-out: Inhibition at 1 μM (NDP-α-MSH) In Normal System, MC4-R; for Ki: read-out: Ki (nM) (NDP-α-MSH) In Normal System, MC4-R
Description: as §1, §2

[8] = biological target: T2, MC4-R; test: cAMP agonist stimulation, low receptor density system (0.1 ng/mL doxycycline); conditions: for Efficacy/Intrinsic Activity: 0.1 ng/mL doxycycline, low receptor density hMC4-R system, NDP-α-MSH maximal cAMP = 1.0
[9] = biological target: T2, MC4-R; test: cAMP agonist stimulation, high receptor density system (10 ng/mL doxycycline); conditions: for Efficacy/Intrinsic Activity: 10 ng/mL doxycycline, high receptor density hMC4-R system, NDP-α-MSH maximal cAMP = 1.0

Chain of MC3-R (P41968 whole entry): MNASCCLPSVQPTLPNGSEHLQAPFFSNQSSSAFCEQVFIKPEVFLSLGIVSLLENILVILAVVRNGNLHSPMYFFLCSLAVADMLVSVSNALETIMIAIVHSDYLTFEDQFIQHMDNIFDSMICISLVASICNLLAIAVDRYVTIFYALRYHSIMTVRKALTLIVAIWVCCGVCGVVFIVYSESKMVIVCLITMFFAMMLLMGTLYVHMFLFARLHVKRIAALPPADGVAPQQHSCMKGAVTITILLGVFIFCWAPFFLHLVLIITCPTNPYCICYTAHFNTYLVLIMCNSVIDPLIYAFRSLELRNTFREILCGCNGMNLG
T1 sequence (Q01727 whole entry): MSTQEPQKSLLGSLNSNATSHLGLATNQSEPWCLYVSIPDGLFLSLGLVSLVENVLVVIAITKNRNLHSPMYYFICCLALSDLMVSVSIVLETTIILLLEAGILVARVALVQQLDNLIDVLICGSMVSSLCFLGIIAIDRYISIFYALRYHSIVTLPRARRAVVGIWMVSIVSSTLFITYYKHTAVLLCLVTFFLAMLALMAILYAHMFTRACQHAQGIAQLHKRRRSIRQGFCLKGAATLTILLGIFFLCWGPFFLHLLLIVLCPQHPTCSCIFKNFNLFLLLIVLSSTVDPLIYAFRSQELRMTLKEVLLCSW
Chain of MC5-R (P33032 whole entry): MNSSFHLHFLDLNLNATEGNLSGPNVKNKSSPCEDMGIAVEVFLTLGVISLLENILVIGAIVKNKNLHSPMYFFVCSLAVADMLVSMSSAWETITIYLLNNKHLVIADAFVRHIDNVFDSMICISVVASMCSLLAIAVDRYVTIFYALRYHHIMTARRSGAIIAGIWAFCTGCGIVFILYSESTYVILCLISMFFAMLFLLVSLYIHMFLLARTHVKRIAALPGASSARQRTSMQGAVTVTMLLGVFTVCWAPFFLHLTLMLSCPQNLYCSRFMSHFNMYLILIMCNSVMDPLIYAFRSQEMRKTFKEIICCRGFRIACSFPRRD
T2 sequence (P32245 whole entry): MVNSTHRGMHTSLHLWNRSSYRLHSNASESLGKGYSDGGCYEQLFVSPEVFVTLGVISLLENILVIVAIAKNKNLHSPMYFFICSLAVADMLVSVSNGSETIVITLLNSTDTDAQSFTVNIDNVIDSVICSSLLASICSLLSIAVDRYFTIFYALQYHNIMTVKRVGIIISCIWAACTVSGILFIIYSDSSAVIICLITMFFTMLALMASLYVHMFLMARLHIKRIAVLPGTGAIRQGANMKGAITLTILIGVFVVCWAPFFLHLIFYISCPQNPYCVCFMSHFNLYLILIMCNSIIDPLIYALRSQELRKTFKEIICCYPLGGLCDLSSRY

## Cc1ccc(C[C@@H](N)C(=O)N2C[C@@H](C)N(CCc3ccc4ccccc4c3)C[C@@H]2CCCNC(=N)N)c(C)c1 [Example 27, N-{3-[1-[2(R)-Amino-3-(2,4-dimethyl-phenyl)-propionyl]-5(R)-methyl-4-(2-naphthalen-2-yl-ethyl)-piperazin-2(S)-yl]-propyl}-guanidine]
[1]
  inhibition at 1 µM: 9%
  Ki: 1230 nM
[2]; rat, ICV
  Penile Erection ICV: No
[2]; rat, ICV, 1 and 3 nmole
  penile erection response: no penile erection response
[2]; rat, IV
  Penile Erection IV: No
[2]; rat, IV, 1 and 3 mg/kg
  penile erection response: no penile erections
[3]; 3 mg/kg, 4 hours
  inhibition in vivo at 3 mg/kg: 47%
[3]; 10 mg/kg, 4 hours
  inhibition in vivo at 10 mg/kg: 88%
[4]
  inhibition at 1 µM: 62%
[5]
  inhibition at 1 µM: 59%
[6]
  intrinsic activity at MC4-R in a normal system: 0.2
  functional status at MC4-R in cAMP assay: partial agonist (intrinsic activity between 0.1 (10%) and 0.7 (70%) is classified as a partial agonist)
[7]
  inhibition at 1 µM: 100%
[8]
  Efficacy/Intrinsic Activity: None
[9]
  EC50: 129 nM
  Efficacy/Intrinsic Activity: 0.61

## CC(=O)N[C@H](Cc1ccc(C)cc1C)C(=O)N1C[C@@H](C)N(C(=O)Cc2ccc3ccccc3c2)C[C@@H]1CCCNC(=N)N [Example 30, N-{(R)-1-(2,4 dimethyl-benzyl)-2-[(2S,5R)-2-(3-guanidino-propyl)-5-methyl-4-(2-naphthalen-2-yl-acetyl)-piperazin-1-yl]-2-oxo-ethyl}-acetamide]
[1]
  Ki: 1880 nM
[2]; rat, IV
  Penile Erection IV: No
[2]; rat, IV, 0.0003 to 0.03 mg/kg
  penile erection response: no penile activity response
[3]; 3 mg/kg, 4 hours
  inhibition in vivo at 3 mg/kg: 8%
[4]
  Ki: 232 nM
[5]
  Ki: 250 nM
[6]
  EC50: 9 nM
  intrinsic activity at MC4-R in a normal system: 0.4
  functional status at MC4-R in cAMP assay: partial agonist (intrinsic activity between 0.1 (10%) and 0.7 (70%) is classified as a partial agonist)
[7]
  Ki: 11 nM
[8]
  Efficacy/Intrinsic Activity: None
[9]
  EC50: 51 nM
  Efficacy/Intrinsic Activity: 0.18

## Cc1cc(Cl)ccc1C[C@@H](N)C(=O)N1C[C@@H](C)N(CCc2ccc3ccccc3c2)C[C@@H]1CCCNC(=N)N [Example 26, N-{3-[1-[2(R)-Amino-3-(2-methyl, 4-chloro-phenyl)-propionyl]-5(R)-methyl-4-(2-naphthalen-2-yl-ethyl)-piperazin-2(S)-yl]-propyl}-guanidine]
[1]
  inhibition at 1 µM: 6%
[2]; rat, IV
  Penile Erection IV: No
[2]; rat, IV, 1 and 3 mg/kg
  penile erection response: no penile erection
[3]; 3 mg/kg, 4 hours
  inhibition in vivo at 3 mg/kg: 44%
[3]; 10 mg/kg, 4 hours
  inhibition in vivo at 10 mg/kg: 86%
[4]
  inhibition at 1 µM: 74%
[5]
  inhibition at 1 µM: 77%
[6]
  intrinsic activity at MC4-R in a normal system: 0.3
  functional status at MC4-R in cAMP assay: partial agonist (intrinsic activity between 0.1 (10%) and 0.7 (70%) is classified as a partial agonist)
[7]
  inhibition at 1 µM: 100%
[8]
  Efficacy/Intrinsic Activity: None
[9]
  EC50: 31 nM
  Efficacy/Intrinsic Activity: 0.78

## CC(=O)N[C@H](Cc1ccc(C)cc1C)C(=O)N1C[C@@H](C)N(CCc2ccc3ccccc3c2)C[C@@H]1CCCNC(=N)N [Example 25, N-{1(R)-(2,4-Dimethyl-benzyl)-2-[2(S)-(3-guanidino-propyl)-5(R)-methyl-4-(2-naphthalen-2-yl-ethyl)-piperazin-1-yl]-2-oxo-ethyl}-acetamide]
[1]
  inhibition at 1 µM: 28%
  Ki: 568 nM
[3]; 10 mg/kg, 4 hours
  maximal decrease in food intake: 34%
[4]
  inhibition at 1 µM: 75%
[5]
  inhibition at 1 µM: 89%
[7]
  inhibition at 1 µM: 100%
[8]
  Efficacy/Intrinsic Activity: None
[9]
  Efficacy/Intrinsic Activity: None

## Cc1ccc(C[C@@H](N)C(=O)N2C[C@@H](C)N(C(=O)Cc3ccc4ccccc4c3)C[C@@H]2CCCNC(=N)N)c(C)c1 [Example 29]
[1]
  inhibition at 1 µM: 0%
  Ki: 431 nM
[2]; IV, 0.0003 to 0.03 mg/kg
  maximum mean PEs per rat: 0.5
[2]; rat, IV
  Penile Erection IV: Yes*
[2]; rat, IV, 0.0003 to 0.03 mg/kg
  animals responding: no more than 50%
[3]; 3 mg/kg
  decrease in food intake: 3%
[3]; 10 mg/kg
  decrease in food intake: 26%
[4]
  inhibition at 1 µM: 25%
  Ki: 526 nM
[5]
  inhibition at 1 µM: 7%
  Ki: 1540 nM
[6]
  EC50: 46 nM
  intrinsic activity at MC4-R in a normal system: 0.8
  functional status at MC4-R in cAMP assay: agonist (intrinsic activity of 0.7 (70%) or higher is classified as an agonist)
[7]
  inhibition at 1 µM: 85%
  Ki: 6 nM
[8]
  EC50: 45 nM
  Efficacy/Intrinsic Activity: 0.25
[9]
  EC50: 34 nM
  Efficacy/Intrinsic Activity: 0.77

## CC(=O)N[C@H](Cc1ccc(Cl)cc1C)C(=O)N1C[C@@H](C)N(C(=O)Cc2ccc3ccccc3c2)C[C@@H]1CCCNC(=N)N [Example 31, N-{(R)-1-(2-methyl, 4-chloro-benzyl)-2-[(2S,5R)-2-(3-guanidino-propyl)-5-methyl-4-(2-naphthalen-2-yl-acetyl)-piperazin-1-yl]-2-oxo-ethyl}-acetamide]
[1]
  Ki: 1390 nM
[2]; rat, IV
  Penile Erection IV: No
[2]; rat, IV, 0.0003 to 0.03 mg/kg
  penile erection response: no penile activity response
[3]; 10 mg/kg, 4 hours
  inhibition in vivo at 10 mg/kg: 7%
[4]
  Ki: 136 nM
[5]
  Ki: 234 nM
[6]
  EC50: 3 nM
  intrinsic activity at MC4-R in a normal system: 0.6
  functional status at MC4-R in cAMP assay: partial agonist (intrinsic activity between 0.1 (10%) and 0.7 (70%) is classified as a partial agonist)
[7]
  Ki: 5 nM
[8]
  Efficacy/Intrinsic Activity: None
[9]
  EC50: 39 nM
  Efficacy/Intrinsic Activity: 0.27
